# Numbers after ± are expanded uncertainties.
# Key:
# [1] = refractive index (Na D-line) (dimensionless); conditions: 101.33 kPa, Liquid, Standard Abbe refractometry
# [2] = refractive index (Na D-line) (dimensionless); wn = mass fraction of the nth substance listed; conditions: 95 kPa, Liquid, Standard Abbe refractometry
smiles,measurement,setting,value
CCCCCCCCCCCC [dodecane],refractive index,[1]; 298.2 K,1.4196 ± 0.0006
same,refractive index,[1]; 313.2 K,1.4131 ± 0.0006
CCOP(=O)([O-])OCC.CCn1cc[n+](C)c1 [1-ethyl-3-methylimidazolium diethyl phosphate],refractive index,[1]; 298.2 K,1.4733 ± 0.0006
same,refractive index,[1]; 313.2 K,1.4691 ± 0.0006
CCCCCCCCCCCC [dodecane] + Cc1cccc2c1sc1c(C)cccc12,refractive index,"[2]; 298.2 K, w2 = 0",1.4196 ± 0.0006
same,refractive index,"[2]; 313.2 K, w2 = 0",1.4131 ± 0.0006
CCOS(=O)(=O)[O-].CCn1cc[n+](C)c1 [1-ethyl-3-methylimidazolium ethyl sulfate],refractive index,[1]; 298.2 K,1.4789 ± 0.0011
same,refractive index,[1]; 313.2 K,1.4745 ± 0.0011
"Cc1cccc2c1sc1c(C)cccc12 [4,6-dimethyldibenzo[b,d]thiophene] + CCCCCCCCCCCC",refractive index,"[2]; 298.2 K, w1 = 0.0037",1.4201 ± 0.0006
same,refractive index,"[2]; 298.2 K, w1 = 0.0062",1.4206 ± 0.0006
same,refractive index,"[2]; 298.2 K, w1 = 0.0089",1.421 ± 0.0006
same,refractive index,"[2]; 313.2 K, w1 = 0.0037",1.4137 ± 0.0006
same,refractive index,"[2]; 313.2 K, w1 = 0.0062",1.4141 ± 0.0006
same,refractive index,"[2]; 313.2 K, w1 = 0.0089",1.4146 ± 0.0006

# Reference: the NIST ThermoML archive (doi:10.1021/je100991y)
